As a reminder, the IC50 is the concentration at which inhibition is half-maximal. Higher therefore signals a need for much substance.

The experiment is described as follows: Ability to inhibit expression of Vascular cell adhesion molecule 1.

In turn, `CCCCN(CCCC)S(=O)(=O)c1ccc(Cl)c([N+](=O)[O-])c1` [N,N-Dibutyl-4-chloro-3-nitro-benzenesulfonamide] had an IC50 of 10 µM.
Then `CCNS(=O)(=O)c1ccc(Cl)c([N+](=O)[O-])c1` [4-Chloro-N-ethyl-3-nitro-benzenesulfonamide], with 15 µM; and `O=[N+]([O-])c1cc(S(=O)(=O)c2ccc(F)c([N+](=O)[O-])c2)ccc1F` [1-fluoro-4-[(4-fluoro-3-nitrophenyl)sulfonyl]-2-nitrobenzene], with 7 µM.
The molecule `COCCN(CCOC)S(=O)(=O)c1ccc(Cl)c([N+](=O)[O-])c1` [4-Chloro-N,N-bis-(2-methoxy-ethyl)-3-nitro-benzenesulfonamide] displayed an IC50 of 5 µM.
Turning to `N#Cc1ccc(Cl)c([N+](=O)[O-])c1` [4-Chloro-3-nitro-benzonitrile], the 50% inhibitory concentration (IC50) is 11 µM.
Then `O=[N+]([O-])c1cc(S(=O)(=O)NCc2ccccc2)ccc1Cl` [N-Benzyl-4-chloro-3-nitro-benzenesulfonamide], with 18 µM; and `O=Cc1ccc(Cl)c([N+](=O)[O-])c1` [4-Chloro-3-nitro-benzaldehyde], with 15 µM.
Then `O=[N+]([O-])c1cc(S(=O)(=O)N(CCO)CCO)ccc1Cl` [4-Chloro-N,N-bis-(2-hydroxy-ethyl)-3-nitro-benzenesulfonamide], with 19 µM; and `N#Cc1cc([N+](=O)[O-])ccc1Cl` [2-Chloro-5-nitro-benzonitrile], with 17 µM; and `O=[N+]([O-])c1cc(S(=O)(=O)N2CCCC2)ccc1Cl` [1-(4-Chloro-3-nitro-benzenesulfonyl)-pyrrolidine], with 4 µM.
Then `CCN(CC)S(=O)(=O)c1ccc(Cl)c([N+](=O)[O-])c1` [4-Chloro-N,N-diethyl-3-nitro-benzenesulfonamide], with 3 µM.
Molecule `CC(C)N(C(C)C)S(=O)(=O)c1ccc(Cl)c([N+](=O)[O-])c1` [4-Chloro-N,N-diisopropyl-3-nitro-benzenesulfonamide] came in with a concentration for half-maximal inhibition (IC50) of 10 µM.
Then `CNS(=O)(=O)c1ccc(Cl)c([N+](=O)[O-])c1` [4-Chloro-N-methyl-3-nitro-benzenesulfonamide], with 11 µM.
Then `O=C(c1ccccc1)c1ccc(Cl)c([N+](=O)[O-])c1` [(4-Chloro-3-nitro-phenyl)-phenyl-methanone], with 15 µM.
Then `CCCCCN(CCCCC)S(=O)(=O)c1ccc(Cl)c([N+](=O)[O-])c1` [4-Chloro-3-nitro-N,N-dipentyl-benzenesulfonamide], with 7 µM; and `CCN(C)S(=O)(=O)c1ccc(Cl)c([N+](=O)[O-])c1` [4-Chloro-N-ethyl-N-methyl-3-nitro-benzenesulfonamide], with 10 µM.
For the molecule `CCN(C(C)C)S(=O)(=O)c1ccc(Cl)c([N+](=O)[O-])c1` [4-Chloro-N-ethyl-N-isopropyl-3-nitro-benzenesulfonamide], it took 15 µM to reach half-maximal inhibition (IC50).
As to `CCCN(CCC)S(=O)(=O)c1ccc(Cl)c([N+](=O)[O-])c1` [4-Chloro-3-nitro-N,N-dipropyl-benzenesulfonamide], the IC50 came out at 9 µM.
The result for `CN(CCCCCCN(C)S(=O)(=O)c1ccc(Cl)c([N+](=O)[O-])c1)S(=O)(=O)c1ccc(Cl)c([N+](=O)[O-])c1` [1N-{6-[4-chloro-3-nitrophenyl(methyl)sulfonamido]hexyl}-1N-methyl-4-chloro-3-nitro-1-benzenesulfonamide] reads 30 µM; that for `CN(C)S(=O)(=O)c1ccc(Cl)c([N+](=O)[O-])c1` [4-Chloro-N,N-dimethyl-3-nitro-benzenesulfonamide], 10 µM; that for `CCOC(=O)C1CCN(S(=O)(=O)c2ccc(Cl)c([N+](=O)[O-])c2)CC1` [1-(4-Chloro-3-nitro-benzenesulfonyl)-piperidine-4-carboxylic acid ethyl ester], 8 µM.
The result for `N#Cc1cc([N+](=O)[O-])c(Cl)c([N+](=O)[O-])c1` [4-Chloro-3,5-dinitro-benzonitrile] reads 20 µM.
`CN1CCN(S(=O)(=O)c2ccc(Cl)c([N+](=O)[O-])c2)CC1` [1-(4-Chloro-3-nitro-benzenesulfonyl)-4-methyl-piperazine] returned a half-inhibitory concentration (IC50) of 8 µM.
Molecule `COC(=O)c1ccc(S(C)(=O)=O)c([N+](=O)[O-])c1` [4-Methanesulfonyl-3-nitro-benzoic acid methyl ester] showed an IC50 of 5 µM.
`NS(=O)(=O)c1ccc(Cl)c([N+](=O)[O-])c1` [4-Chloro-3-nitro-benzenesulfonamide] had a half-inhibitory concentration (IC50) of 40 µM.
The result for `O=C(c1ccc(Cl)c([N+](=O)[O-])c1)c1ccc(Cl)c([N+](=O)[O-])c1` [Bis-(4-chloro-3-nitro-phenyl)-methanone] reads 5 µM; that for `CN(CCCN(C)S(=O)(=O)c1ccc(Cl)c([N+](=O)[O-])c1)S(=O)(=O)c1ccc(Cl)c([N+](=O)[O-])c1` [1N-{3-[4-chloro-3-nitrophenyl(methyl)sulfonamido]propyl}-1N-methyl-4-chloro-3-nitro-1-benzenesulfonamide], 6 µM; that for `N#Cc1ccc(Cl)cc1[N+](=O)[O-]` [4-Chloro-2-nitro-benzonitrile], 5 µM.
Then `N#Cc1cc([N+](=O)[O-])cc([N+](=O)[O-])c1` [3,5-Dinitro-benzonitrile], with 10 µM.

For the origin of these results see BindingDB's records for doi:10.1016/s0960-894x(01)00306-7 (Atherogenics, 2001).
